Experiments:
Assay in all cases: Cellular uptake assay (UPLC-ESI-MS/MS of cell lysates)
Format in all cases: cell-based, human
Details in all cases: 20 μM, 72 h
MCF-10A cells = tested on: MCF-10A cells
Procedure: (§1) Figure 1 Conjugation of PZ with DHA increases the cellular uptake and stability of PZ and DHA. The cells were treated with 20 μM of PZ, DHA or PZ-DHA and cultured for 72 h at 37 °C. Cells were harvested and washed thoroughly using cold PBS. Cells were lysed in cold acetone containing 0.05 mg/mL quercetin, and cell lysates were collected by centrifugation and analyzed by using UPLC-ESI-MS/MS. (A) mean % cellular uptake of PZ, DHA and PZ-DHA. (B) fold increase in intracellular PZ and DHA when conjugated. ANOVA multiple means statistical comparison method was performed and differences among means were compared using Tukey’s test; *p < 0.05. (MDA-MB-231 p = 0.008; MDA-MB-468 p = 0.01; 4T1 p = 0.02; MCF-7 p = 0.01; MCF-10A p = 0.0005).
(§2) Cells were seeded at a density of 3 × 10^5 cells (MDA-MB-231, MDA-MB-468, MCF-7, and MCF-10A) or 1 × 10^5 cells (4T1) /T-75 flask. The cells were cultured overnight to promote cell adhesion. Adherent cells were treated with a sub-cytotoxic concentration (20 μM) of PZ, DHA or PZ-DHA and cultured for 72 h at 37 °C. The supernatant was carefully removed, and cell monolayers were washed with cold PBS. Cells were harvested using TrypLE Express and washed thoroughly with cold PBS. […] The sample was analyzed using a UPLC/ESI/MS system. The percentage cell uptake of the total dose was quantified using standard curves of PZ (R^2 = 0.99), DHA (R^2 = 0.98) or PZ-DHA (R^2 = 0.99) made in methanol.
(§3) PZ-DHA and/or PZ-DHA metabolites in malignant/non-malignant epithelial cell lysates, in vitro microsome enzyme reaction mixtures, and mouse serum aliquots were determined using UPLC-ESI–MS/MS instrument (Waters Limited, Mississauga, ON, Canada). All mass spectroscopic analyses were performed using mass scan (full-scan, identification of unknowns) and single ion monitoring (SIM; quantification of PZ, DHA, PZ-DHA, and quercetin) modes of a Waters H-class UPLC separations module coupled with a Micromass Quattro micro API MS/MS system and MassLynx V4.0 control software. […]

MCF-7 cells = tested on: MCF-7 cells
Procedure: as §1, §2, §3

MDA-MB-468 cells = tested on: MDA-MB-468 cells
Procedure: as §1, §2, §3

Compound: CC/C=C\C/C=C\C/C=C\C/C=C\C/C=C\C/C=C\CCC(=O)OC[C@H]1O[C@@H](Oc2cc(O)cc(O)c2C(=O)CCc2ccc(O)cc2)[C@H](O)[C@@H](O)[C@@H]1O [PZ-DHA, phloridzin docosahexaenoate]
- PZ-DHA uptake and fold-increase in intracellular PZ and DHA versus the malignant cells (MCF-10A cells): similar
- cellular uptake (as a % of the dose) (MCF-7 cells): 21%
- cellular uptake (as a % of the dose) (MDA-MB-468 cells): 50%
